From patent publication US20200236940A1, “2-(HET)ARYL-SUBSTITUTED FUSED HETEROCYCLE DERIVATIVES AS PESTICIDES” (Bayer Aktiengesellschaft, priority 2017, published 2020)

What was measured:
Type in all cases: in vivo
Myzus persicae [1] = assay: Myzus persicae spray test (MYZUPE), Chinese cabbage leaf discs; conditions: foliar, 120 h; for pest or weed control at 20 g/ha: application rate 20 g/ha; for pest or weed control at 20 g/ha / pest or weed control at 100 g/ha: after 5 days, read-out: efficacy; for pest or weed control at 100 g/ha: application rate 100 g/ha
Method: Myzus persicae—Spray Test [table] To produce a suitable active ingredient formulation, 1 part by weight of active ingredient is dissolved with the specified parts by weight of solvent and made up to the desired concentration with water containing an emulsifier concentration of 1000 ppm. To produce further test concentrations, the formulation is diluted with emulsifier-containing water. Discs of Chinese cabbage leaves (Brassica pekinensis) infested by all stages of the green peach aphid (Myzus persicae) are sprayed with an active ingredient formulation of the desired concentration. After 5 days, the efficacy in % is determined. 100% means that all the aphids have been killed; 0% means that no aphids have been killed. Myzus persicae—Spray Test (MYZUPE) [table] To produce a suitable active ingredient formulation, 1 part by weight of active ingredient is dissolved with the specified parts by weight of solvent and made up to the desired concentration with water containing an emulsifier concentration of 1000 ppm. To produce further test concentrations, the formulation is diluted with emulsifier-containing water. Discs of Chinese cabbage leaves (Brassica pekinensis) infested by all stages of the green peach aphid (Myzus persicae) are sprayed with an active ingredient formulation of the desired concentration. After the desired period of time, the efficacy in % is determined. 100% means that all the aphids have been killed; 0% means that no aphids have been killed.

Myzus persicae [2] = assay: Myzus persicae oral test; conditions: 120 h, application rate 4 ppm, after 5 days, read-out: efficacy
Method: Myzus persicae—Oral Test Solvent: 100 parts by weight of acetone To produce a suitable active ingredient formulation, 1 part by weight of active ingredient is dissolved with the stated parts by weight of solvent and made up to the desired concentration with water. 50 μl of the active ingredient formulation are transferred into microtitre plates and made up to a final volume of 200 μl with 150 μl of IPL41 insect medium (33%+15% sugar). Subsequently, the plates are sealed with parafilm, which a mixed population of green peach aphids (Myzus persicae) within a second microtitre plate is able to puncture and imbibe the solution. After 5 days, the efficacy in % is determined. 100% means that all the aphids have been killed; 0% means that no aphids have been killed.

Phaedon cochleariae = Phaedon cochleariae spray test, Chinese cabbage leaf discs; conditions: foliar, 168 h, application rate 100 g/ha, after 7 days, larvae, read-out: efficacy
Method: Phaedon cochleariae—Spray Test
To produce a suitable active ingredient formulation, 1 part by weight of active ingredient is dissolved with the specified parts by weight of solvent and made up to the desired concentration with water containing an emulsifier concentration of 1000 ppm. To produce further test concentrations, the formulation is diluted with emulsifier-containing water.
After 7 days, the efficacy in % is determined. 100% means that all the beetle larvae have been killed; 0% means that no beetle larvae have been killed.

Spodoptera frugiperda [3] = assay: Spodoptera frugiperda spray test, maize leaf discs; conditions: for Emax at 100 g/ha: Spodoptera frugiperda, foliar, 168 h, SPODFR, 100 g of ai/ha, 7 dat, read-out: % efficacy; for efficacy: application rate 100 g/ha, after 7 days, caterpillars
Method: Spodoptera frugiperda—Spray Test [table] To produce a suitable active ingredient formulation, 1 part by weight of active ingredient is dissolved with the specified parts by weight of solvent and made up to the desired concentration with water containing an emulsifier concentration of 1000 ppm. To produce further test concentrations, the formulation is diluted with emulsifier-containing water. Leaf discs of maize (Zea mays) are sprayed with an active ingredient formulation of the desired concentration and, after drying, populated with caterpillars of the armyworm (Spodoptera frugiperda). After 7 days, the efficacy in % is determined. 100% means that all the caterpillars have been killed; 0% means that no caterpillar has been killed.

Ctenocephalides felis = Ctenocephalides felis oral test; conditions: application rate 100 ppm, after 2 days
Method: Ctenocephalides felis—Oral Test Solvent: dimethyl sulfoxide To produce a suitable active ingredient formulation, 10 mg of active ingredient are mixed with 0.5 ml of dimethyl sulfoxide. Dilution with citrated cattle blood gives the desired concentration. About 20 unfed adult cat fleas (Ctenocephalides felis) are placed into a chamber which is closed at the top and bottom with gauze. A metal cylinder whose bottom end is closed with parafilm is placed onto the chamber. The cylinder contains the blood/active ingredient formulation, which can be imbibed by the fleas through the parafilm membrane. After 2 days, the kill in % is determined. 100% means that all of the fleas have been killed; 0% means that none of the fleas have been killed.

Lucilia cuprina = Lucilia cuprina test; conditions: after 2 days, L1 larvae
Method: Lucilia cuprina Test Solvent: dimethyl sulfoxide To produce a suitable active ingredient formulation, 10 mg of active ingredient are mixed with 0.5 ml of dimethyl sulfoxide, and the concentrate is diluted with water to the desired concentration. About 20 L1 larvae of the Australian sheep blowfly (Lucilia cuprina) are transferred into a test vessel containing minced horsemeat and the active ingredient formulation of the desired concentration. After 2 days, the kill in % is determined. 100% means that all the larvae have been killed; 0% means that no larvae have been killed.

Myzus persicae [4] = assay: Myzus persicae spray test, bell pepper plants; conditions: application rate 20 ppm, after 6 days
Method: Myzus persicae—Spray Test Solvent: 14 parts by weight of dimethylformamide Emulsifier: alkylaryl polyglycol ether To produce a suitable active ingredient formulation, 1 part by weight of active ingredient is dissolved with the specified parts by weight of solvent and made up to the desired concentration with water containing an emulsifier concentration of 1000 ppm. To produce further test concentrations, the formulation is diluted with emulsifier-containing water. If the addition of ammonium salts or/and penetrants is required, these are each added in a concentration of 1000 ppm to the formulation solution. Bell pepper plants (Capsicum annuum) severely infested with the green peach aphid (Myzus persicae) are treated by spraying with the active ingredient formulation in the desired concentration. After 6 days, the kill in % is determined. 100% means that all of the aphids have been killed; 0% means that none of the aphids have been killed.

Nezara viridula = Nezara viridula spray test; conditions: 96 h, NEZAVI, 500 g of ai/ha, 4 dat, read-out: % efficacy
Method: Nezara viridula—Spray Test [table] To produce a suitable active ingredient formulation, 1 part by weight of active ingredient is dissolved with the specified parts by weight of solvent and made up to the desired concentration with water containing an emulsifier concentration of 1000 ppm. To produce further test concentrations, the formulation is diluted with emulsifier-containing water. If the addition of ammonium salts or/and penetrants is required, these are each added in a concentration of 1000 ppm to the formulation solution. Barley plants (Hordeum vulgare) infected with larvae of the Southern green shield bug (Nezara viridula) are sprayed with an active ingredient formulation of the desired concentration. After the desired period of time, the efficacy in % is determined. 100% means that all of the shield bugs have been killed; 0% means that none of the shield bugs have been killed.

Spodoptera frugiperda [5] = assay: Spodoptera frugiperda spray test (SPODFR S), cotton leaves; conditions: 168 h, 7 dat, read-out: % efficacy
Method: Spodoptera frugiperda—Spray Test (SPODFR S) Solvent: 14 parts by weight of dimethylformamide Emulsifier: alkylaryl polyglycol ether To produce a suitable active ingredient formulation, 1 part by weight of active ingredient is dissolved with the specified parts by weight of solvent and made up to the desired concentration with water containing an emulsifier concentration of 1000 ppm. To produce further test concentrations, the formulation is diluted with emulsifier-containing water. If the addition of ammonium salts or/and penetrants is required, these are each added in a concentration of 1000 ppm to the formulation solution. Cotton leaves (Gossypium hirsutum) are sprayed with an active ingredient formulation of the desired concentration and populated with caterpillars of the armyworm (Spodoptera frugiperda). After the desired time, the kill in % is determined. 100% means that all caterpillars have been killed; 0% means that none of the caterpillars have been killed.

| SMILES | pest or weed control at 20 g/ha (Myzus persicae [1]) | pest or weed control at 4 ppm (Myzus persicae [2]) | pest or weed control at 100 g/ha (Phaedon cochleariae) | other results |
| --- | --- | --- | --- | --- |
| CCS(=O)(=O)c1ccc(NC(=O)NC)nc1-c1nc2cc(C(F)(F)F)nc(C)c2n1C [Example I-002] | 90% | 100% |  |  |
| CCS(=O)(=O)c1ccc(-n2cc(Cl)cn2)nc1-c1nc2cc(C(F)(F)F)nc(C)c2n1C [Example I-004] |  | 100% | 100% |  |
| CCS(=O)(=O)c1ccc(-n2cncn2)nc1-c1nc2cc(C(F)(F)F)nc(Cl)c2n1C [Example I-005] | 100% | 100% |  | pest or weed control at 100 g/ha (Myzus persicae [1]): 100%; Emax at 100 g/ha (Spodoptera frugiperda [3]): 100%; efficacy (Spodoptera frugiperda [3]): 100% |
| CCS(=O)(=O)c1ccc(NC(=O)NC)nc1-c1nc2cc(C(F)(F)F)nc(Cl)c2n1C [Example I-006] | 90% | 100% |  | pest or weed control at 100 g/ha (Myzus persicae [1]): 90% |
| CCS(=O)(=O)c1ccc(N)nc1-c1nc2cc(C(F)(F)F)nc(C#N)c2n1C [Example I-007] | 90% | 100% | 100% |  |
| CCS(=O)(=O)c1ccc(-n2cc(C#N)cn2)nc1-c1nc2cc(C(F)(F)F)nc(C)c2n1C [Example I-008] |  | 100% | 100% | efficacy (kill) (Ctenocephalides felis): 100%; efficacy (kill) (Lucilia cuprina; application rate 100 ppm): 100% |
| CCS(=O)(=O)c1ccc(-n2cc(Cl)cn2)nc1-c1nc2cc(C(F)(F)F)nc(C#N)c2n1C [Example I-009, 2-[6-(4-chloro-1H-pyrazol-1-yl)-3-(ethylsulfonyl)pyridin-2-yl]-3-methyl-6-(trifluoromethyl)-3H-imidazo[4,5-c]pyridine-4-carbonitrile] |  | 90% |  | efficacy (kill) (Lucilia cuprina; application rate 20 ppm): 100%; efficacy (kill) (Lucilia cuprina; application rate 100 ppm): 100% |
| CCS(=O)(=O)c1ccc(NC(=O)NC)nc1-c1nc2cc(C(F)(F)F)nc(C#N)c2n1C [Example I-010] |  | 100% |  | efficacy (kill) (Ctenocephalides felis): 100%; efficacy (kill) (Myzus persicae [4]): 99% |
| CCS(=O)(=O)c1ccc(-n2ncn(-c3ccc(Cl)cc3)c2=O)nc1-c1nc2cc(C(F)(F)F)nc(C#N)c2n1C [Example I-011, 2-{6-[4-(4-chlorophenyl)-5-oxo-4,5-dihydro-1H-1,2,4-triazol-1-yl]-3-(ethylsulfonyl)pyridin-2-yl}-3-methyl-6-(trifluoromethyl)-3H-imidazo[4,5-c]pyridine-4-carbonitrile] |  | 100% | 100% | efficacy (kill) (Ctenocephalides felis): 100%; efficacy (kill) (Lucilia cuprina; application rate 20 ppm): 100%; efficacy (kill) (Lucilia cuprina; application rate 100 ppm): 100%; Emax at 500 g/ha (Nezara viridula): 90% |
| CCS(=O)(=O)c1ccc(-n2cncn2)nc1-c1nc2cc(C(F)(F)F)nc(C#N)c2n1C [Example I-012] |  | 100% | 83% | efficacy (kill) (Myzus persicae [4]): 100% |
| CCS(=O)(=O)c1ccc(C(=O)NC)nc1-c1nc2cc(C(F)(F)F)nc(C)c2n1C [Example I-014] | 90% | 100% |  |  |
| CCS(=O)(=O)c1ccc(C(=O)N(C)C)nc1-c1nc2cc(C(F)(F)F)nc(C)c2n1C [Example I-015] | 90% | 100% |  | pest or weed control at 100 g/ha (Myzus persicae [1]): 90% |
| CCc1nc(C(F)(F)F)cc2nc(-c3nc(-n4ncn(-c5ccc(Cl)cc5)c4=O)ccc3S(=O)(=O)CC)n(C)c12 [Example I-016] |  | 100% | 100% | Emax at 4 ppm (Spodoptera frugiperda [5]): 100%; Emax at 500 g/ha (Nezara viridula): 50%; efficacy (Spodoptera frugiperda [3]): 100% |
| C=Cc1nc(C(F)(F)F)cc2nc(-c3nc(-n4ncn(-c5ccc(Cl)cc5)c4=O)ccc3S(=O)(=O)CC)n(C)c12 [Example I-017] | 90% | 100% |  | efficacy (Spodoptera frugiperda [3]): 100% |
| CCS(=O)(=O)c1ccc(-n2cncn2)nc1-c1nc2cc(C(F)(F)F)ncc2n1C [Prior art WO 2016/124563 (Ex. 32), reference compound] |  |  |  | Emax at 100 g/ha (Spodoptera frugiperda [3]): 50% |
| CCS(=O)(=O)c1ccc(-n2ccnn2)nc1-c1nc2cc(C(F)(F)F)ncc2n1C [Prior art according to WO 2016/124563, reference compound] |  |  |  | Emax at 4 g/ha (Myzus persicae [1]; MYZUPE, 4 g of ai/ha, 5 dat, read-out: % efficacy): 0% |
